Test results as given in ChEMBL document CHEMBL1134076, “5,5-Diaryl-2-amino-4-pentenoates as novel, potent, and selective glycine transporter type-2 reuptake inhibitors” (Bioorg Med Chem Lett, 2001).

Legend:
[1] = biological target: T1, Sodium- and chloride-dependent glycine transporter 1 (Rattus norvegicus, UniProt P28572); experiment: In vitro glycine reuptake inhibitory activity against glycine transporter type-1 isoform C (GlyT-1c) transporter cells after incubation at 37 degrees for 30 min in presence of 50 nM [3H]glycine.
T1 sequence (P28572 whole entry): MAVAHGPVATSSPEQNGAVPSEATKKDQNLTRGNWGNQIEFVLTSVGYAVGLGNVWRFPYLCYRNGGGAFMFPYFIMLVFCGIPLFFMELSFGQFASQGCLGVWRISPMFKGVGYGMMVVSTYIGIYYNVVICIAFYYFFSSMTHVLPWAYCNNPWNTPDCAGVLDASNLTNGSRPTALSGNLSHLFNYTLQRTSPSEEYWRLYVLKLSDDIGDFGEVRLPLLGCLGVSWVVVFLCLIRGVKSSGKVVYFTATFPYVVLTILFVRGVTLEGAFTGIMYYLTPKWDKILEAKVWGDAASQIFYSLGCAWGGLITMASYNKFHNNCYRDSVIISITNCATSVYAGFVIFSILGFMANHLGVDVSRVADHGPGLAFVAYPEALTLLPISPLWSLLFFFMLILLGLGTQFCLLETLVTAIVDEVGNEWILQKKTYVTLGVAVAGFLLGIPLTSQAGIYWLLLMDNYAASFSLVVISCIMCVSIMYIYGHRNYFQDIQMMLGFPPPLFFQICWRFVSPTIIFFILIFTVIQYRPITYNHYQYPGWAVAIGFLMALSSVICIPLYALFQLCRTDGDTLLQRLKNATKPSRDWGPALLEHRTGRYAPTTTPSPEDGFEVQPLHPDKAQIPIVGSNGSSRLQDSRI

[2] = biological target: T2, Sodium- and chloride-dependent glycine transporter 2 (Rattus norvegicus, UniProt P58295); experiment: In vitro glycine reuptake inhibitory activity against glycine transporter type-2 (GlyT-2) transporter cells after incubation at 37 degrees for 30 min in presence of 50 nM [3H]glycine.
T2 sequence (P58295 whole entry): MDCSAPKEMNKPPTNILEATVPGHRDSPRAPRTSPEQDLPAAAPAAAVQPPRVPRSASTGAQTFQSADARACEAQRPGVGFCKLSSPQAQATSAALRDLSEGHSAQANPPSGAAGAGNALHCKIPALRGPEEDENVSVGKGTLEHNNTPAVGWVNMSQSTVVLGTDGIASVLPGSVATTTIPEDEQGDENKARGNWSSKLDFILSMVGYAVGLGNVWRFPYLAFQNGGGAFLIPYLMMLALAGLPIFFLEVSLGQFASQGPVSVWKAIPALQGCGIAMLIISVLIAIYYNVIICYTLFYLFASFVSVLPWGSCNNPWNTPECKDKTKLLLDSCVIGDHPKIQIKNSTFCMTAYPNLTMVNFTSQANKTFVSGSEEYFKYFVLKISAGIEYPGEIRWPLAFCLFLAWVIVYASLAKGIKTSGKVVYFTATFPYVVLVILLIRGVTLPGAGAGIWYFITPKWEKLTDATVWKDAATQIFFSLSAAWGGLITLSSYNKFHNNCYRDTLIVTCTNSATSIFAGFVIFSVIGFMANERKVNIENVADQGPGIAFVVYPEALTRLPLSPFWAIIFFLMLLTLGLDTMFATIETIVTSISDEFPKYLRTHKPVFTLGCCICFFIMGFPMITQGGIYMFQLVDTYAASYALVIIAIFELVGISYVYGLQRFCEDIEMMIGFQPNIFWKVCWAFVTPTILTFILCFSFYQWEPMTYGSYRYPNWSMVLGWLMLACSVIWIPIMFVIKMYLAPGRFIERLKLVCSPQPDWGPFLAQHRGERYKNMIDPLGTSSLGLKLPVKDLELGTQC

| SMILES | IC50 [1] | IC50 [2] |
| --- | --- | --- |
| NC(C/C=C(\c1cccc(-c2ccccc2)c1)c1ccc(F)cc1F)C(=O)O (stereo not given) | > 10 µM | 1.34 µM |
| NC(C/C=C(\c1ccc(-c2ccccc2)cc1)c1ccc(F)cc1F)C(=O)O (stereo not given) | > 10 µM | 3.66 µM |
| COc1ccc(/C(=C\CC(N)C(=O)O)c2ccc(F)cc2F)cc1 (stereo not given) | > 10 µM | 2.03 µM |
| CC(C)(C)c1ccc(/C(=C\CC(N)C(=O)O)c2ccc(F)cc2F)cc1 (stereo not given) | > 10 µM | 1.74 µM |
| NC(C/C=C(/c1ccc(-c2ccccc2)cc1)c1ccc(F)cc1F)C(=O)O (stereo not given) | 3.4 µM | 2.4 µM |
| N#Cc1ccc(/C(=C\CC(N)C(=O)O)c2ccc(F)cc2F)cc1 (stereo not given) | > 10 µM | > 10 µM |
| CC(C)c1ccc(C(=CCC(N)C(=O)O)c2ccc(C(C)C)cc2)cc1 (stereo not given) | > 10 µM | 2.03 µM |
| CC(C)c1ccc(/C(=C/CC(N)C(=O)O)c2ccc(F)cc2F)cc1 (stereo not given) | > 10 µM | > 10 µM |
| CC(C)c1ccc(/C(=C\CC(N)C(=O)O)c2ccc(-c3ccccc3)cc2)cc1 (stereo not given) | > 10 µM | 2.06 µM |
| NC(C/C=C(\c1ccsc1)c1ccc(F)cc1F)C(=O)O (stereo not given) | > 10 µM | 5.88 µM |
| CC(C)c1ccc(/C(=C\CC(N)C(=O)O)c2ccc(C#N)cc2)cc1 (stereo not given) | > 10 µM | 2.64 µM |
| CC(C)c1ccc(/C(=C\CC(N)C(=O)O)c2ccc(C(C)(C)C)cc2)cc1 (stereo not given) | > 10 µM | 5.47 µM |
| NC(C/C=C(\c1cccnc1)c1ccc(F)cc1F)C(=O)O (stereo not given) | > 10 µM | > 10 µM |
| CC(C)c1ccc(/C(=C\CC(N)C(=O)O)c2cccnc2)cc1 (stereo not given) | 6.48 µM | 5.93 µM |
| NC(C/C=C(\c1ccccc1)c1ccc(F)cc1F)C(=O)O (stereo not given) | 9.5 µM | 6.44 µM |
| CC(C)c1cccc(/C(=C\CC(N)C(=O)O)c2ccc(F)cc2F)c1 (stereo not given) | > 10 µM | 1.59 µM |
| NC(C/C=C(/c1ccc(F)cc1F)c1ccccc1-c1ccccc1)C(=O)O (stereo not given) | 8.92 µM | 2.75 µM |

Stronger by IC50 [2], values ahead:

| IC50 [1] | IC50 [2] | SMILES |
| --- | --- | --- |
| > 10 µM | 0.66 µM | CCc1ccc(/C(=C\CC(N)C(=O)O)c2ccc(F)cc2F)cc1CC (stereo not given) |
| 8.34 µM | 0.4 µM | CC(C)c1ccc(/C(=C\CC(N)C(=O)O)c2ccccc2)cc1 (stereo not given) |
| > 10 µM | 1.16 µM | COc1ccc(/C(=C/CC(N)C(=O)O)c2ccc(C(C)C)cc2)cc1 (stereo not given) |
| 9.56 µM | 1.17 µM | Cc1ccc(/C(=C\CC(N)C(=O)O)c2ccc(F)cc2F)cc1 (stereo not given) |
| > 10 µM | 0.33 µM | CC(C)c1ccc(/C(=C\CC(N)C(=O)O)c2ccc(F)cc2F)cc1 (stereo not given) |
|  | 0.283 µM | CCc1ccc(/C(=C\C[C@H](N)C(=O)O)c2ccc(F)cc2F)cc1CC |
|  | 0.15 µM | CC(C)c1ccc(/C(=C\C[C@H](N)C(=O)O)c2ccc(F)cc2F)cc1 |
| 8.02 µM | 0.29 µM | CC(C)c1ccc(/C(=C\CC(N)C(=O)O)c2ccccc2F)cc1 (stereo not given) |
| > 10 µM | 0.46 µM | CCc1ccc(/C(=C\CC(N)C(=O)O)c2ccc(F)cc2F)cc1 (stereo not given) |
| > 10 µM | 0.77 µM | NC(C/C=C(\c1ccc2ccccc2c1)c1ccc(F)cc1F)C(=O)O (stereo not given) |
| 5.77 µM | 1.03 µM | CC(C)c1ccc(/C(=C\CC(N)C(=O)O)c2ccsc2)cc1 (stereo not given) |
|  | 0.365 µM | N[C@@H](C/C=C(\c1ccc2ccccc2c1)c1ccc(F)cc1F)C(=O)O |
